Data on eleven compounds can be found in ChEMBL document CHEMBL1135600, “Novel tricyclic-alpha-alkyloxyphenylpropionic acids: dual PPARalpha/gamma agonists with hypolipidemic and antidiabetic activity” (J Med Chem, 2002).

Series [1] concerns the target T1, Peroxisome proliferator-activated receptor gamma (Homo sapiens, UniProt P37231).
T1 sequence (P37231 whole entry): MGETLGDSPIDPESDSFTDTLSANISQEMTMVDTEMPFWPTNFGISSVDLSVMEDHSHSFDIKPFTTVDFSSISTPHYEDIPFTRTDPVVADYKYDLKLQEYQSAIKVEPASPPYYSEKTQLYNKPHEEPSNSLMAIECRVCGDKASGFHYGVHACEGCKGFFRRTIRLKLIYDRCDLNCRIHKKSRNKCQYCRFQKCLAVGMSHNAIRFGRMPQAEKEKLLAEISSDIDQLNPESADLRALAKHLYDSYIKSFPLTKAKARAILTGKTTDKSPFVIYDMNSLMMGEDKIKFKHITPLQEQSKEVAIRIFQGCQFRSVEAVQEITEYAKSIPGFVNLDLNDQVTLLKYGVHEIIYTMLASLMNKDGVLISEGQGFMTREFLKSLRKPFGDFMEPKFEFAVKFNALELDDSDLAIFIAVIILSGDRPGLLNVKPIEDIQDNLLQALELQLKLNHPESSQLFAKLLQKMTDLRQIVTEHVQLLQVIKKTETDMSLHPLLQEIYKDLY
Description: In vitro transactivation using receptor transactivation assay against hPPAR gamma

The target of series [2] is T2, Peroxisome proliferator-activated receptor alpha (Homo sapiens, UniProt Q07869).
T2 sequence (Q07869 whole entry): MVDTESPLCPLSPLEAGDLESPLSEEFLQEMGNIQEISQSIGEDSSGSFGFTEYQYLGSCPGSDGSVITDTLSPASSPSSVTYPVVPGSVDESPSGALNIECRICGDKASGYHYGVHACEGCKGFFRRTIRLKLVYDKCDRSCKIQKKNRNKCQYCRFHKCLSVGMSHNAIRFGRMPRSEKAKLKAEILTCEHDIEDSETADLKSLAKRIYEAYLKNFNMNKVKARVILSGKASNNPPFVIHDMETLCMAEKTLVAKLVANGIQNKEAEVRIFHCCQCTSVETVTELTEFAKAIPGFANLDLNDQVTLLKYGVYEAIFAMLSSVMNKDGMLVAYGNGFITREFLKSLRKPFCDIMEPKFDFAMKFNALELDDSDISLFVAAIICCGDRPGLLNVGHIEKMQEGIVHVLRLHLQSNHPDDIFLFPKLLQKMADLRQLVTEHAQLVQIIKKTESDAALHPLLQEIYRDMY
The experiment in a line: In vitro transactivation using receptor transactivation assay against hPPAR alpha. It is filed as functional.

The species entered for series [3] is Rattus norvegicus. Briefly: Maximum achieved Total cholesterol reduction relative to vehicle treated control group. It is filed as functional.
For series [4], the species on record is Mus musculus. Briefly: Maximum achieved insulin reduction relative to vehicle treated control group. In kind it is functional.
Series [5] is filed under the species Rattus norvegicus. The experiment in a line: Maximum achieved Nonfasted triglycerides reduction relative to vehicle treated control group. It is filed as functional.
The species entered for series [6] is Mus musculus. Briefly: Effective dose which produces the desired nonfasting blood glucose levels after 7 days in 50% of the treated mice. In kind it is functional. Particulars: 168 h.
Series [7] can be described thus: Clearance after oral administration. In kind it is ADME, organism-based. Particulars: in vivo.
The species named for series [8] is Mus musculus. Briefly: Maximum achieved blood glucose reduction relative to vehicle treated control group. It is filed as functional.
Series [9] in a line: Area under plasma concentration time curve after oral administration at a dose 2.2 mg/kg. Also on record: dose 2.2 mg/kg, route oral. The settings on record: plasma, read-out: AUC (converted). In kind it is ADME, organism-based.
For series [10], the species on record is Rattus norvegicus. Briefly: Effective dose which produces the desired nonfasting triglyceride levels in high cholesterol fed male Sprgue-Dawley rats. It is filed as functional.
Series [11] is filed under the species Rattus norvegicus. The experiment in a line: Effective dose which produces the desired total cholesterol levels imale Sprgue-Dawley rats. It is filed as functional.
Series [12] in a line: Area under blood glucose time curve after OGTT on the 9th day of treatment. In kind it is ADME, tissue-based.
Series [13] in a line: Oral bioavailability. Particulars: eutheria, in vivo. It is filed as ADME, organism-based.
Series [14] is described as follows: Maximum plasma concentration after oral administration at a dose 2.2 mg/kg. Also on record: dose 2.2 mg/kg, route oral. In kind it is ADME, organism-based.
The species named for series [15] is Mus musculus. The experiment in a line: Effective dose which produces the desired nonfasting triglyceride levels after 7 days in 50% of the treated male db/db mice. It is filed as functional. Particulars: 168 h.
Series [16] is filed under the species Mus musculus. The experiment in a line: Maximum achieved triglycerides reduction relative to vehicle treated control group. It is filed as functional.
The species named for series [17] is Mus musculus. Briefly: Effective dose which produces the desired nonfasting insuline levels after 7 days in 50% of the treated male db/db mice. It is filed as functional. Particulars: 168 h.
Series [18] in a line: Oral half life was reported. The settings on record: in vivo. It is filed as ADME, organism-based.
The nature of series [19]: Clearance after oral administration in rat. It is filed as ADME, organism-based. The settings on record: in vivo.
Series [20] in a line: Maximum plasma concentration after oral administration at a dose 2.2 mg/kg in rat. In kind it is ADME, organism-based. Also on record: dose 2.2 mg/kg, route oral.
Series [21] in a line: Volume of distribution during steady state in rat. In kind it is ADME, organism-based. The settings on record: in vivo, read-out: Vss.
A short description of series [22]: Oral bioavailability in rat. It is filed as ADME, organism-based. The settings on record: in vivo.
Series [23] is filed under the species Mus musculus. The experiment in a line: Minimum concentration which produces the desired nonfasting triglyceride levels after 7 days in 50% of the treated male db/db mice. It is filed as functional. The settings on record: 168 h.
The species named for series [24] is Mus musculus. Briefly: Minimum concentration which produces the desired nonfasting blood glucose levels after 7 days in 50% of the treated mice. Particulars: 168 h. In kind it is functional.
The species entered for series [25] is Mus musculus. Briefly: Maximum achieved insulin reduction relative to vehicle treated control group; NE is Not Effective. It is filed as functional, organism-based.

Molecules are shown by their SMILES. “And” between values parts separate entries of the source, which are not always exact repeats. Identical values can stand only once. The source made the active and inactive calls. The calls are words filed in the database; no cut-off is given here.

The compound `CCOC(Cc1ccc(OCCCN2c3ccccc3CCc3ccccc32)cc1)C(=O)O` (centres undefined) displayed an EC50 in series [1] of 0.76 µM.
In the case of `CCO[C@@H](Cc1ccc(OCCN2c3ccccc3Oc3ccccc32)cc1)C(=O)O` [RAGAGLITAZAR], the concentration for a half-maximal effect (EC50) stood at 3.21 µM in series [2] and 0.57 µM in series [1].
Regarding `CCOC(Cc1ccc(OCCC2Sc3ccccc3Oc3ccccc32)cc1)C(=O)O` (centres undefined), the concentration giving a half-maximal response (EC50) in series [2] amounted to 9 µM; in [1], 3.7 µM.
In the case of `CCOC(Cc1ccc(OCCC2c3ccccc3-c3ccccc32)cc1)C(=O)O` (centres undefined), the results for the EC50 in [2] and in [1] were 11.7 µM and 0.49 µM, respectively.
Compound `CCO[C@@H](Cc1ccc(OCCn2c3ccccc3c3ccccc32)cc1)C(=O)O` came in with a Vd in “in vivo” of 0.73 L/kg. Moreover, the Reduction in the series filed under Rattus norvegicus [3] came out at 50%; in the series filed under Rattus norvegicus [5] it was 56%. Further, the Max reduction in the series filed under Mus musculus [4] is 85%; in the series filed under Mus musculus [8], 58% and 55%; in the series filed under Mus musculus [16] it was 52%. The 50% effective dose (ED50) in the series listed under Mus musculus [6] came to 0.27 mg/kg; in the series filed under Rattus norvegicus [10], 0.06 mg/kg; in the series listed under Rattus norvegicus [11], 0.34 mg/kg; in the series filed under Mus musculus [15] it was 0.52 mg/kg; in the series listed under Mus musculus [17], 0.34 mg/kg. In addition, the CL/F in series [7] stood at 0.75 mL/min/kg. In addition, the AUC in series [9] was 144 µg·h/mL. In addition, the “AUC ED50” value in series [12] was found to be 0.4 mg/kg. In addition, the bioavailability in series [13] was > 100%. The Cmax in series [14] was determined as 4430 ng/mL. The EC50 worked out at 0.36 µM in series [2] and 0.17 µM in series [1]. The compound also returned a half-life in series [18] of 22.2 h.
`CCOC(Cc1ccc(OCCCN2c3ccccc3OCOc3ccccc32)cc1)C(=O)O` (centres undefined): in [19], the CL/F amounted to 13.7 mL/min/kg. Besides, the Max reduction is 17% and 20% in the series listed under Mus musculus [8]; 13% in the series listed under Mus musculus [16]. In addition, the “AUC ED50” value in series [12] came to 6.57 mg/kg. For the same compound, in series [20], the concentration peaked (Cmax) at 730 ng/mL. Also, in [21], the Vd is 0.76 L/kg. Also, the bioavailability in [22] amounted to 63%. The results for the ED50 in the series filed under Mus musculus [23] and in the series listed under Mus musculus [24] were 18.3 mg/kg and 8.11 mg/kg, respectively. Moreover, the EC50 in series [2] and in series [1] was 1.2 µM throughout. In addition, in the series listed under Mus musculus [25], the NE entry was “inactive”.
`CCOC(Cc1ccc(OCC=C2c3ccccc3-c3ccccc32)cc1)C(=O)O` (centres undefined): the EC50 was 12.5 µM in series [2] and 12.1 µM in [1].
As for `CC(C)(Oc1ccc(CCNC(=O)c2ccc(Cl)cc2)cc1)C(=O)O` [BEZAFIBRATE], the Reduction in the series listed under Rattus norvegicus [3] was 74%; in the series listed under Rattus norvegicus [5], 63%. Moreover, the ED50 was 16.5 mg/kg in the series filed under Rattus norvegicus [10] and 16.7 mg/kg in the series listed under Rattus norvegicus [11]. For the same compound, in [1], the response was half-maximal at 73.5 µM (EC50).
On to `CCOC(Cc1ccc(OCCN2c3ccccc3C=Cc3ccccc32)cc1)C(=O)O` (centres undefined), for which the EC50 in [2] came out at 9.5 µM; in [1], 0.76 µM.
`CCOC(Cc1ccc(OCC=C2c3ccccc3CCc3ccccc32)cc1)C(=O)O` (centres undefined) returned a concentration for a half-maximal effect (EC50) in [1] of 12.6 µM. In other words, the double-digit micromolar range.
Still for that read-out and setting: the result for `CCOC(Cc1ccc(OCCC=C2c3ccccc3CCc3ccccc32)cc1)C(=O)O` (centres undefined) reads 16.7 µM.
